Drawing on ChEMBL document CHEMBL3286250, “Oxirapentyns F-K from the marine-sediment-derived fungus Isaria felina KMM 4639” (J Nat Prod, 2014), this text covers Activity and IC50 for five compounds.

Broadly, the IC50 is the midpoint of a concentration-inhibition curve.

For one data set, the system named is Staphylococcus aureus. Description: Antimicrobial activity against Staphylococcus aureus ATCC 21027 by agar diffusion method. The class given is functional, organism-based. (Agar diffusion results depend on both activity and mobility in agar.)
In the next data set the test system is Escherichia coli. Put plainly: Antimicrobial activity against Escherichia coli ATCC 15034 by agar diffusion method. The class given is functional, organism-based.
The test system of a further data set is Pseudomonas aeruginosa. Description: Antimicrobial activity against Pseudomonas aeruginosa KMM 433 by agar diffusion method. It counts as functional, organism-based.
The subject of a further data set is Bacillus subtilis. Put plainly: Antimicrobial activity against Bacillus subtilis KMM 430 by agar diffusion method. It counts as functional, organism-based.
The subject of the next data set is Candida albicans. Description: Antimicrobial activity against Candida albicans KMM 455 by agar diffusion method. It counts as functional, organism-based.
The subject of a further data set is THP-1. Description: Cytotoxicity against human THP1 cells after 46 hrs by MTS assay. It counts as functional, cell-based. The settings on record: THP-1, 46 h. A general note: Formazan colour is commonly taken as a measure of viable cells.
Data set [1] can be described thus: Cytotoxicity against CD1 mouse erythrocytes up to 100 uM after 46 hrs by MTS assay. The class given is cell-based. The settings on record: erythrocyte.
A short description of data set [2]: Cytotoxicity against CD1 mouse splenocytes up to 100 uM after 46 hrs by MTS assay. It counts as cell-based. The settings on record: splenocyte.
Another data set has as its system HL-60. Put plainly: Cytotoxicity against human HL60 cells after 46 hrs by MTS assay. The settings on record: HL-60, 46 h. It counts as functional, cell-based.

Structures are written as SMILES. Active and inactive are the calls of the source. No cut-off for these calls is given here.

Regarding `C=C(C)C#C[C@@]1(O)[C@@H](O)[C@H](O)[C@]2(OC(C)=O)C[C@@H](O)C(C)(C)O[C@H]2[C@@H]1O`, the result in the data set on Staphylococcus aureus, in the data set on Escherichia coli, in the data set on Pseudomonas aeruginosa, with Bacillus subtilis and in the data set on Candida albicans was inactive.

Take `CC(=O)O[C@@H]1C[C@]23O[C@H]2C2=C(C(=O)CC(C)(C)O2)[C@@H](O)[C@@H]3OC1(C)C`: the outcome in the data set on Staphylococcus aureus, in the data set with Escherichia coli, with Pseudomonas aeruginosa, in the data set on Bacillus subtilis and with Candida albicans was inactive.

Regarding `C=C(C)C#C[C@]1(O)[C@@H](O)[C@@H]2OC(C)(C)[C@H](OC(C)=O)C[C@@]23O[C@H]3[C@@H]1O`, the result in the data set with Staphylococcus aureus, with Escherichia coli, in the data set on Pseudomonas aeruginosa, with Bacillus subtilis and with Candida albicans was inactive.

Take `C=C(C)C#C[C@]12O[C@H]1[C@@H]1OC(C)(C)[C@H](OC(C)=O)C[C@@]1(O)[C@@H](O)[C@@H]2O`: the result in the data set on Staphylococcus aureus, with Escherichia coli, with Pseudomonas aeruginosa, in the data set on Bacillus subtilis and in the data set on Candida albicans was inactive.

Consider `COC(=O)/C=C/C(O)=C1\COCC(OC(C)=O)=C1C(=O)OC`, for which the result in the data set with Staphylococcus aureus, in the data set with Escherichia coli, in the data set with Pseudomonas aeruginosa, in the data set on Bacillus subtilis and with Candida albicans was inactive. In addition, the IC50 with THP-1 was found to be 37.4 µM; in the data set with HL-60, 4.3 µM. The Activity result in [1] and in data set [2] was “Non-toxic” each time.
